system: HCC1143; assay: normalised viability (% of control), CellTiter-Blue; higher = more viable cells (100 = DMSO, 0 = benzethonium chloride kill control); conditions: 0.1 nM; incubation time: 72 h
In short: (§1)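 The reported figure is normalised viability at a single listed concentration of the series. Breast cancer cell lines (20 µl suspension) went onto 384-well plates holding compound in 5 µl medium for 72 h. CellTiter-Blue (2.5 µl, 2 h, 37 °C) was read by fluorescence at 560/590 nm, and each plate was scaled to vehicle at 100 and a positive kill control at 0.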

Compared with `COc1cc2c(Oc3ccc4[nH]c(C)cc4c3F)ncnc2cc1OCCCN1CCCC1` [Cediranib], `C=CC(=O)N1CCC[C@@H](n2nc(-c3ccc(Oc4ccccc4)cc3)c3c(N)ncnc32)C1` is lower in normalised viability: 110% for the first, 88.1% for the second.

same assay, conditions: 1 nM; incubation time: 72 h

Compared with `NCCCNCCSP(=O)(O)O` [Amifostine], `Nc1nc2[nH]cc(CCc3ccc(C(=O)N[C@@H](CCC(=O)O)C(=O)O)cc3)c2c(=O)[nH]1` [Pemetrexed] is higher in normalised viability: 81.4% for the first, 92.5% for the second.

Compared with `C[C@H]1C[C@@H]2[C@H]([C@@H](O)C[C@@]3(C)[C@H]2CC[C@]3(O)C(=O)CO)[C@@]2(C)C=CC(=O)C=C12` [Methylprednisolone], `COc1cc([C@@H]2c3cc4c(cc3[C@@H](O[C@@H]3O[C@@H]5CO[C@@H](c6cccs6)O[C@H]5[C@H](O)[C@H]3O)[C@H]3COC(=O)[C@H]23)OCO4)cc(OC)c1O` [Teniposide] is higher in normalised viability: 93.3% for the first, 98.1% for the second.

Compared with `CCc1cncnc1N1CCN(Cc2nc3ccc(C(F)(F)F)cc3[nH]2)CC1`, `Oc1ncc(N(CCCl)CCCl)c(O)n1` [Uracil mustard] is lower in normalised viability: 103% for the first, 95.7% for the second.

system: CAL-85-1; assay: as above; conditions: 0.1 nM; incubation time: 72 h
In short: as §1

Compared with `COc1cc2c(Oc3ccc4[nH]c(C)cc4c3F)ncnc2cc1OCCCN1CCCC1` [Cediranib], `C=CC(=O)N1CCC[C@@H](n2nc(-c3ccc(Oc4ccccc4)cc3)c3c(N)ncnc32)C1` is lower in normalised viability: 107% for the first, 86.1% for the second.

same assay, conditions: 1 nM; incubation time: 72 h

First: NCCCNCCSP(=O)(O)O [Amifostine]
Second: Nc1nc2[nH]cc(CCc3ccc(C(=O)N[C@@H](CCC(=O)O)C(=O)O)cc3)c2c(=O)[nH]1 [Pemetrexed]
The normalised viability of the first is lower: 85.2% for the first, 89.2% for the second.

Compared with `C[C@H]1C[C@@H]2[C@H]([C@@H](O)C[C@@]3(C)[C@H]2CC[C@]3(O)C(=O)CO)[C@@]2(C)C=CC(=O)C=C12` [Methylprednisolone], `COc1cc([C@@H]2c3cc4c(cc3[C@@H](O[C@@H]3O[C@@H]5CO[C@@H](c6cccs6)O[C@H]5[C@H](O)[C@H]3O)[C@H]3COC(=O)[C@H]23)OCO4)cc(OC)c1O` [Teniposide] is higher in normalised viability: 84.6% for the first, 105% for the second.

Going from `CCc1cncnc1N1CCN(Cc2nc3ccc(C(F)(F)F)cc3[nH]2)CC1` to `Oc1ncc(N(CCCl)CCCl)c(O)n1` [Uracil mustard], the normalised viability falls from 99% to 88.9%.

system: DU-4475; assay: as above; conditions: 0.1 nM; incubation time: 72 h
In short: as §1

Going from `COc1cc2c(Oc3ccc4[nH]c(C)cc4c3F)ncnc2cc1OCCCN1CCCC1` [Cediranib] to `C=CC(=O)N1CCC[C@@H](n2nc(-c3ccc(Oc4ccccc4)cc3)c3c(N)ncnc32)C1`, the normalised viability rises from 91.1% to 94.8%.

same assay, conditions: 1 nM; incubation time: 72 h

First: NCCCNCCSP(=O)(O)O [Amifostine]
Second: Nc1nc2[nH]cc(CCc3ccc(C(=O)N[C@@H](CCC(=O)O)C(=O)O)cc3)c2c(=O)[nH]1 [Pemetrexed]
The normalised viability of the first is lower: 91.6% for the first, 99.3% for the second.

Going from `C[C@H]1C[C@@H]2[C@H]([C@@H](O)C[C@@]3(C)[C@H]2CC[C@]3(O)C(=O)CO)[C@@]2(C)C=CC(=O)C=C12` [Methylprednisolone] to `COc1cc([C@@H]2c3cc4c(cc3[C@@H](O[C@@H]3O[C@@H]5CO[C@@H](c6cccs6)O[C@H]5[C@H](O)[C@H]3O)[C@H]3COC(=O)[C@H]23)OCO4)cc(OC)c1O` [Teniposide], the normalised viability falls from 95.4% to 94.6%.

Compared with `CCc1cncnc1N1CCN(Cc2nc3ccc(C(F)(F)F)cc3[nH]2)CC1`, `Oc1ncc(N(CCCl)CCCl)c(O)n1` [Uracil mustard] is lower in normalised viability: 93.2% for the first, 88.3% for the second.

system: HDQ-P1; assay: as above; conditions: 0.1 nM; incubation time: 72 h
In short: as §1

First: COc1cc2c(Oc3ccc4[nH]c(C)cc4c3F)ncnc2cc1OCCCN1CCCC1 [Cediranib]
Second: C=CC(=O)N1CCC[C@@H](n2nc(-c3ccc(Oc4ccccc4)cc3)c3c(N)ncnc32)C1
The normalised viability of the first is lower: 81.1% for the first, 105% for the second.

same assay, conditions: 1 nM; incubation time: 72 h

First: NCCCNCCSP(=O)(O)O [Amifostine]
Second: Nc1nc2[nH]cc(CCc3ccc(C(=O)N[C@@H](CCC(=O)O)C(=O)O)cc3)c2c(=O)[nH]1 [Pemetrexed]
The normalised viability of the first is lower: 98.3% for the first, 107% for the second.

First: C[C@H]1C[C@@H]2[C@H]([C@@H](O)C[C@@]3(C)[C@H]2CC[C@]3(O)C(=O)CO)[C@@]2(C)C=CC(=O)C=C12 [Methylprednisolone]
Second: COc1cc([C@@H]2c3cc4c(cc3[C@@H](O[C@@H]3O[C@@H]5CO[C@@H](c6cccs6)O[C@H]5[C@H](O)[C@H]3O)[C@H]3COC(=O)[C@H]23)OCO4)cc(OC)c1O [Teniposide]
The normalised viability of the first is lower: 97.7% for the first, 104% for the second.

First: CCc1cncnc1N1CCN(Cc2nc3ccc(C(F)(F)F)cc3[nH]2)CC1
Second: Oc1ncc(N(CCCl)CCCl)c(O)n1 [Uracil mustard]
The normalised viability of the first is lower: 106% for the first, 110% for the second.

system: MDA-MB-231; assay: as above; conditions: 0.1 nM; incubation time: 72 h
In short: as §1

Compared with `COc1cc2c(Oc3ccc4[nH]c(C)cc4c3F)ncnc2cc1OCCCN1CCCC1` [Cediranib], `C=CC(=O)N1CCC[C@@H](n2nc(-c3ccc(Oc4ccccc4)cc3)c3c(N)ncnc32)C1` is higher in normalised viability: 94.4% for the first, 101% for the second.

same assay, conditions: 1 nM; incubation time: 72 h

Going from `NCCCNCCSP(=O)(O)O` [Amifostine] to `Nc1nc2[nH]cc(CCc3ccc(C(=O)N[C@@H](CCC(=O)O)C(=O)O)cc3)c2c(=O)[nH]1` [Pemetrexed], the normalised viability rises from 80% to 100%.

Going from `C[C@H]1C[C@@H]2[C@H]([C@@H](O)C[C@@]3(C)[C@H]2CC[C@]3(O)C(=O)CO)[C@@]2(C)C=CC(=O)C=C12` [Methylprednisolone] to `COc1cc([C@@H]2c3cc4c(cc3[C@@H](O[C@@H]3O[C@@H]5CO[C@@H](c6cccs6)O[C@H]5[C@H](O)[C@H]3O)[C@H]3COC(=O)[C@H]23)OCO4)cc(OC)c1O` [Teniposide], the normalised viability rises from 103% to 132%.

First: CCc1cncnc1N1CCN(Cc2nc3ccc(C(F)(F)F)cc3[nH]2)CC1
Second: Oc1ncc(N(CCCl)CCCl)c(O)n1 [Uracil mustard]
The normalised viability of the first is lower: 96.8% for the first, 99.4% for the second.

system: CAL-148; assay: as above; conditions: 0.1 nM; incubation time: 72 h
In short: as §1

First: COc1cc2c(Oc3ccc4[nH]c(C)cc4c3F)ncnc2cc1OCCCN1CCCC1 [Cediranib]
Second: C=CC(=O)N1CCC[C@@H](n2nc(-c3ccc(Oc4ccccc4)cc3)c3c(N)ncnc32)C1
The normalised viability of the first is higher: 109% for the first, 102% for the second.

same assay, conditions: 1 nM; incubation time: 72 h

Compared with `NCCCNCCSP(=O)(O)O` [Amifostine], `Nc1nc2[nH]cc(CCc3ccc(C(=O)N[C@@H](CCC(=O)O)C(=O)O)cc3)c2c(=O)[nH]1` [Pemetrexed] is higher in normalised viability: 103% for the first, 113% for the second.

First: C[C@H]1C[C@@H]2[C@H]([C@@H](O)C[C@@]3(C)[C@H]2CC[C@]3(O)C(=O)CO)[C@@]2(C)C=CC(=O)C=C12 [Methylprednisolone]
Second: COc1cc([C@@H]2c3cc4c(cc3[C@@H](O[C@@H]3O[C@@H]5CO[C@@H](c6cccs6)O[C@H]5[C@H](O)[C@H]3O)[C@H]3COC(=O)[C@H]23)OCO4)cc(OC)c1O [Teniposide]
The normalised viability of the first is higher: 105% for the first, 103% for the second.

Going from `CCc1cncnc1N1CCN(Cc2nc3ccc(C(F)(F)F)cc3[nH]2)CC1` to `Oc1ncc(N(CCCl)CCCl)c(O)n1` [Uracil mustard], the normalised viability falls from 114% to 103%.

system: SK-BR-3; assay: as above; conditions: 0.1 nM; incubation time: 72 h
In short: as §1

Compared with `COc1cc2c(Oc3ccc4[nH]c(C)cc4c3F)ncnc2cc1OCCCN1CCCC1` [Cediranib], `C=CC(=O)N1CCC[C@@H](n2nc(-c3ccc(Oc4ccccc4)cc3)c3c(N)ncnc32)C1` is lower in normalised viability: 92.3% for the first, 90.7% for the second.

same assay, conditions: 1 nM; incubation time: 72 h

First: NCCCNCCSP(=O)(O)O [Amifostine]
Second: Nc1nc2[nH]cc(CCc3ccc(C(=O)N[C@@H](CCC(=O)O)C(=O)O)cc3)c2c(=O)[nH]1 [Pemetrexed]
The normalised viability of the first is lower: 91.7% for the first, 98.9% for the second.

Compared with `C[C@H]1C[C@@H]2[C@H]([C@@H](O)C[C@@]3(C)[C@H]2CC[C@]3(O)C(=O)CO)[C@@]2(C)C=CC(=O)C=C12` [Methylprednisolone], `COc1cc([C@@H]2c3cc4c(cc3[C@@H](O[C@@H]3O[C@@H]5CO[C@@H](c6cccs6)O[C@H]5[C@H](O)[C@H]3O)[C@H]3COC(=O)[C@H]23)OCO4)cc(OC)c1O` [Teniposide] is higher in normalised viability: 92.2% for the first, 97.2% for the second.

First: CCc1cncnc1N1CCN(Cc2nc3ccc(C(F)(F)F)cc3[nH]2)CC1
Second: Oc1ncc(N(CCCl)CCCl)c(O)n1 [Uracil mustard]
The normalised viability of the first is lower: 88.8% for the first, 97.3% for the second.

system: BT-549; assay: as above; conditions: 0.1 nM; incubation time: 72 h
In short: as §1

Going from `COc1cc2c(Oc3ccc4[nH]c(C)cc4c3F)ncnc2cc1OCCCN1CCCC1` [Cediranib] to `C=CC(=O)N1CCC[C@@H](n2nc(-c3ccc(Oc4ccccc4)cc3)c3c(N)ncnc32)C1`, the normalised viability rises from 90.5% to 118%.

same assay, conditions: 1 nM; incubation time: 72 h

Going from `NCCCNCCSP(=O)(O)O` [Amifostine] to `Nc1nc2[nH]cc(CCc3ccc(C(=O)N[C@@H](CCC(=O)O)C(=O)O)cc3)c2c(=O)[nH]1` [Pemetrexed], the normalised viability rises from 98% to 101%.

From the supplement of paper PMC4862054
